{"source": "patent US6140309A", "about": "“Vasoactive effects and free radical generation by β-amyloid peptides” (University of South Florida, priority 1996, dated 2000)", "key": {"[1]": {"test_system": "blood vessel (rat aorta) with intact endothelium", "test": "β-amyloid induced contraction (vasoactivity) of blood vessel rings in tissue bath", "type": "cell-based", "procedure": "(§1) Freshly excised rat and porcine blood vessels were placed in Kreb's bicarbonate buffer equilibrated with 5% CO2 in O2. The buffer composition consisted of 118.2 mM NaCl, 4.7 mM KCl, 1.2 mM MgSO4, 2.5 mM CaCl2, 1.2 mM NaH2 PO4, 23 mM NaHCO3 and 11.2 mM glucose. After cleaning the vessels free of fat and other adhering tissues, the vessels were cut into ring segments of approximately 3mm in length. Care was taken not to damage the intimal surface.\nThe endothelium was removed from some preparations by rubbing the inside of the lumen with a metal spatula for six to ten seconds and subsequent rinsing with buffer. The removal of endothelium was confirmed by testing for relaxation to acetylcholine [Furchgott and Zawadzki, 1980].\n(§2) The blood vessel preparations were mounted on stainless steel hooks attached to a force-displacement transducer and equilibrated under the optimum tension of 1.3 g for a period of sixty minutes in a tissue bath (10 ml) containing oxygenated (5% CO2 in O2) Kreb's buffer at 37° C. The buffer was changed every fifteen minutes. After equilibration for sixty minutes the viability of the blood vessel with intact endothelium was established by constricting the blood vessel using phenylephrine ([…]). This dose of phenylephrine elicited 80% of the maximum response. […] The vessel preparations were washed for fifteen minutes before various manipulations as described below.\nReferring to FIG. 10, the arrow indicates the addition of 10^-6 M β-amyloid. The control tissue received no β-amyloid. SOD (150 units/ml) was added thirty seconds prior to the addition of β-amyloid. The maximum contraction induced by β-amyloid was 1.14±0.13 (g) and in presence of SOD the contraction was reduced to 0.04±0.02 (g). Values represent the mean ±SEM of five separate experiments."}, "blood vessel (rat aorta)": {"test_system": "blood vessel (rat aorta)", "test": "Acetylcholine induced relaxation of phenylephrine-preconstricted aorta after β-amyloid pretreatment", "type": "cell-based", "procedure": "as §1, §2\nAs shown in FIG. 11a the aorta was preconstricted with 10^-7 M PE and relaxed with increasing doses of acetylcholine as shown by the arrows. (1=10^-9 M, 2=10^-8 M, 3=5×10^-8 M, 4=10^-7 M, 5=5×10^-7 M, 6=10^-6 M, 7=10^-5 M, 8=5×10^-5 M, the curve denoted by (C) is the control curve and +Aβ indicates the curve for β-amyloid treated aorta.)\nFIG. 11b illustrates the relaxation by acetylcholine under control conditions and following fifteen minute incubation with 10^-6 M β-amyloid protein. The acetylcholine relaxation curve is shifted to the right but maintains its sigmoidal form indicating attenuation of acetylcholine induced relaxation. Values represent the mean ±SEM of 5 or more experiments. […] At higher doses of acetylcholine greater percentage changes in relaxation occur preserving the sigmoidal response."}, "aortic rings": {"test_system": "aortic rings", "test": "β-amyloid augmentation of phenylephrine (PE) induced contraction of aortic rings", "type": "cell-based, rat", "settings": "for PE induced contraction, +β-Amyloid P1 (±SEM), percent of control value: 10^-6 M β-amyloid fifteen minutes, control maximum = 100%; for PE induced contraction, +β-Amyloid P2 (±SEM), percent of control value: repeated after rinsing, no further β-amyloid", "procedure": "as §1, §2\nThe procedure was then repeated following incubation of the tissue with 10^-6 M β-amyloid for fifteen minutes (P1). The tissue was then rinsed and contractions repeated twice following fifteen minute incubation (P2 & P3) without further addition of β-amyloid. Arrows are shown for points of addition for P3.\nFollowing a fifteen minute incubation, the preparations were contracted with 10^-7 M phenylephrine (PE) as described earlier. Control contractions with PE alone were carried out in presence of the various test compounds. Values represent the mean ±SEM of four or more experiments. The heat-inactivated SOD was prepared by placing it in boiling water for thirty minutes followed by cooling prior to use. The hydrogen peroxide-inactivated SOD was prepared by exposing SOD to 10 mM H2 O2 for thirty minutes at pH 8.5 and subsequent separation using Microcon filtration system. The amyloid induced PE contraction was blocked by active SOD. Neither albumin or inactivated SOD had any effect on the amyloid activity.\nThe effect of preincubation of blood vessel with 10^-6 M β-amyloidon contraction induced by phenylephrine (2,4,8, & 16×10^-8 M is shown in Table 1). The maximum contraction in the absence of β-amyloid is taken as 100% and the values obtained following exposure to β-amyloid are expressed as percent of control value. After washing out phenylephrine and acetylcholine of the control contraction, β-amyloid augmented the phenylephrine induced contractions (P1). This effect was blocked by SOD. Washing out the phenylephrine and acetylcholine of the post peptide contraction and repeating the contractions caused further enhancement (P2). Values represent the mean ±SEM of nine or more experiments.\nThe tissue was then incubated for fifteen minutes with β-amyloid (5×10^-7 M) with or without the drug, followed by contractions with PE. The concentrations compounds used were: L-NMMA, an inhibitor of NO synthase (10^-4 M); indomethacin, an inhibitor of the cyclooxygenase pathway (10^-5 M); SQ 29548, a thromboxane A2 receptor antagonist (10^-5 M); and catalase (1000 units/ml). Values are represented as percentage of the maximal contraction obtained with β-amyloid and PE alone and standardized to remove the intrinsic effects (if any) of each drug on PE contraction alone. The results represent the mean ±SEM of five or more experiments."}, "[2]": {"test_system": "endothelial cells in aortic rings", "test": "Electron microscopy of the endothelial cell layer in aortic rings", "type": "cell-based, rat", "procedure": "As shown in FIGS. 14A-F, […], or in presence of β-amyloid (10^-6 M), or SOD (150 units/ml) and β-amyloid.The tissue samples were kept in glutaraldehyde solution at 4° C. until processed and then rinsed with cacodylate buffer. The tissues were postfixed with 1% buffered osmium tetroxide, dehydrated with graded ethanol solutions, and embedded in a mixture of eponaraldite. Ultrathin sections were stained with uranyl acetate and lead citrate and viewed on model 7000 Hitachi transmission electron microscope. The inset bar indicates one micron. The experiment was repeated three or more times with blood vessels from different animals."}, "[3]": {"test_system": "endothelial cell layer in rat coronary artery", "test": "Electron microscopy of the endothelial cell layer in rat coronary artery", "type": "cell-based", "settings": "β-amyloid thirty minutes at 10^-6 M", "procedure": "The physiological effects of β-amyloid treatment on the coronary artery with and without pretreatment with SOD is shown in FIGS. 7A-C. FIGS. 7A-C are electron micrographs showing the endothelial cell layer in rat coronary artery. […] The tissue samples were kept in glutaraldehyde solution at 4° C. until processed and then rinsed with cacodylate buffer. The tissues were post-fixed with 1% buffered osmium tetroxide, dehydrated with grated ethanol solutions, and embedded in a mixture of eponaraldite. Ultra thin sections were stained with uranyl acetate and lead citrate and viewed on a model 7,000 Hitachi transmission electron microscope. The inset bar indicates two microns. The experiment was repeated three or more times with blood vessels from different animals. FIG. 7A is a control coronary artery and depicts normal endothelial cells closely adhering to the intimal elastic lamina lining of the lumen. […] FIG. 7C depicts a rat coronary artery pretreated with SOD (150 units/ml, for thirty seconds prior to the addition of β-amyloid)."}, "[4]": {"test_system": "porcine coronary arteries", "test": "Amyloid peptide induced contraction of porcine coronary arteries", "type": "cell-based", "settings": "increasing concentrations of amyloid peptide", "excerpt": "Freshly isolated porcine coronary arteries were studied by the methods described above for rat aorta."}, "Porcine aorta": {"test_system": "Porcine aorta", "test": "U46619 constriction and bradykinin relaxation of porcine vessel after amyloid peptide", "type": "cell-based", "settings": "single dose of amyloid", "excerpt": "The effect of pre-treatment with a single dose of amyloid protein on relaxation induced by increasing concentrations of the vasodilator bradykinin is shown in FIG. 23. […] was preconstricted with a single dose of the vasoconstrictor U46619."}, "[5]": {"test_system": "bovine mid cerebral arteries", "test": "Effect of β-amyloid on bovine cerebral artery (U46619 contraction, bradykinin vasodilation)", "type": "cell-based", "settings": "1 μM β-amyloid for 15 minutes", "procedure": "Freshly dissected bovine mid cerebral arteries were cut into 3 mm rings and studied in tissue chamber as described earlier. Contraction of the blood vessel to the vasoconstrictor U46619 was studied before and after treatment with 1 μM β-amyloid for 15 minutes. […] (See FIG. 24)."}}, "note": "“Also recorded” adds a separate entry of the source."}
{"substance": "β-amyloid", "values": [{"measurement": "duration of the vasoactivity (contractions and relaxations)", "setting": "[1]", "value": "fifteen to twenty minutes"}, {"measurement": "time until vasoactive effect is evident", "setting": "[1]", "value": "within thirty seconds; also recorded: less than one minute; also recorded: less than five minutes"}, {"measurement": "initial detectable change: minor relaxation", "setting": "[1]; after addition of β-amyloid", "value": "< 0.1", "unit": "g"}, {"measurement": "effect of β-amyloid on basal tension", "setting": "[1]; increasing concentrations of β-amyloid", "value": "constricted the blood vessel in a concentration-dependent manner"}, {"measurement": "dependence of the constricting effect on endothelium", "setting": "[1]; vessel with vs without endothelium", "value": "only occurred in the presence of endothelium"}, {"measurement": "cumulative percentage relaxation by acetylcholine after β-amyloid", "setting": "blood vessel (rat aorta); 10^-6 M β-amyloid, fifteen minute incubation, 10^-7 M phenylephrine, all points past 10^-8 M acetylcholine", "value": "significantly lowered"}, {"measurement": "effect of β-amyloid pretreatment on acetylcholine induced relaxation", "setting": "blood vessel (rat aorta); cumulative small doses of acetylcholine (FIG. 4)", "value": "significantly reduced relaxation induced by the same doses of acetylcholine"}, {"measurement": "effect of washing the tissue after β-amyloid on acetylcholine induced relaxation", "setting": "blood vessel (rat aorta); washout after β-amyloid exposure", "value": "did not restore the acetylcholine-induced relaxation to control levels"}, {"measurement": "effect of β-amyloid pretreatment on phenylephrine constriction", "setting": "aortic rings; FIG. 4", "value": "enhanced constriction"}, {"measurement": "PE induced contraction, +β-Amyloid P1 (±SEM), percent of control value", "setting": "aortic rings; PE 2×10^-8 M", "value": "13.3 (5.9) %"}, {"measurement": "PE induced contraction, +β-Amyloid P2 (±SEM), percent of control value", "setting": "aortic rings; PE 2×10^-8 M", "value": "20 (5.0) %"}, {"measurement": "PE induced contraction, +β-Amyloid P1 (±SEM), percent of control value", "setting": "aortic rings; PE 4×10^-8 M", "value": "75 (6.0) %"}, {"measurement": "PE induced contraction, +β-Amyloid P2 (±SEM), percent of control value", "setting": "aortic rings; PE 4×10^-8 M", "value": "99 (15.0) %"}, {"measurement": "PE induced contraction, +β-Amyloid P1 (±SEM), percent of control value", "setting": "aortic rings; PE 8×10^-8 M", "value": "105 (15.0) %"}, {"measurement": "PE induced contraction, +β-Amyloid P2 (±SEM), percent of control value", "setting": "aortic rings; PE 8×10^-8 M", "value": "133 (20.0) %"}, {"measurement": "PE induced contraction, +β-Amyloid P1 (±SEM), percent of control value", "setting": "aortic rings; PE 16×10^-8 M", "value": "128 (11.7) %"}, {"measurement": "PE induced contraction, +β-Amyloid P2 (±SEM), percent of control value", "setting": "aortic rings; PE 16×10^-8 M", "value": "141 (17.6) %"}, {"measurement": "β-amyloid concentration required to induce the morphological changes", "setting": "[2]; incubation periods of fifteen minutes", "value": "≥ 5×10^-7 M"}, {"measurement": "morphological effect on endothelial cells", "setting": "[2]; β-amyloid 10^-6 M, 37° C., thirty minutes", "value": "induced significant damage to the endothelial cells"}, {"measurement": "morphology of endothelial layer after β-amyloid", "setting": "[3]", "value": "Derangement of the endothelial layer, condensed nucleus, separation from the intimal elastic lamina, and areas of denuded internal elastic lamina"}, {"measurement": "contraction of porcine coronary artery samples", "setting": "[4]", "value": "dose dependent contraction"}, {"measurement": "effect on vasodilation by bradykinin", "setting": "Porcine aorta; increasing concentrations of bradykinin", "value": "reduced the vasodilation caused by the bradykinin"}, {"measurement": "effect on vasoconstriction", "setting": "Porcine aorta; preconstricted with U46619", "value": "significant increase in vasoconstriction"}, {"measurement": "contraction induced by the vasoconstrictor U46619 after β-amyloid", "setting": "[5]", "value": "significantly increased"}]}
